Earlier results in PMC8513935.

Assay: experimental, compiled by the authors from the literature (the ESI cites the sources)
Settings: 1,2-Dichloroethane, 25 C

log K of transfer, gas to solvent [log10 K] | Structure (SMILES)
6.17 | CCc1ccc(O)cc1
2.34 | CCCC(C)C

Same assay, conditions: 2-Methylpropan-1-ol, 25 C

log K of transfer, gas to solvent [log10 K] | Structure (SMILES)
6.75 | c1ccc2c(c1)Cc1ccccc1-2

Same assay, conditions: 2-Methylpropan-2-ol, 25 C

log K of transfer, gas to solvent [log10 K] | Structure (SMILES)
6.48 | c1ccc2c(c1)Cc1ccccc1-2

Same assay, conditions: 3-Methylbutan-1-ol, 25 C

log K of transfer, gas to solvent [log10 K] | Structure (SMILES)
6.56 | c1ccc2c(c1)Cc1ccccc1-2

Same assay, conditions: Acetonitrile, 25 C

log K of transfer, gas to solvent [log10 K] | Structure (SMILES)
7.12 | c1ccc2c(c1)Cc1ccccc1-2
1.82 | CCCC(C)C

Same assay, conditions: Butan-1-ol, 25 C

log K of transfer, gas to solvent [log10 K] | Structure (SMILES)
6.71 | c1ccc2c(c1)Cc1ccccc1-2
2.29 | CCCC(C)C

Same assay, conditions: Butan-2-ol, 25 C

log K of transfer, gas to solvent [log10 K] | Structure (SMILES)
6.56 | c1ccc2c(c1)Cc1ccccc1-2

Same assay, conditions: Butanone, 25 C

log K of transfer, gas to solvent [log10 K] | Structure (SMILES)
2.39 | CCCC(C)C

Same assay, conditions: Butyronitrile, 25 C

log K of transfer, gas to solvent [log10 K] | Structure (SMILES)
2.21 | CCCC(C)C

Same assay, conditions: CCl4, 25 C

log K of transfer, gas to solvent [log10 K] | Structure (SMILES)
5.36 | CCc1ccc(O)cc1
2.81 | CCCC(C)C

Same assay, conditions: Chlorobenzene, 25 C

log K of transfer, gas to solvent [log10 K] | Structure (SMILES)
5.8 | CCc1ccc(O)cc1
2.78 | CCCC(C)C

Same assay, conditions: Chloroform, 25 C

log K of transfer, gas to solvent [log10 K] | Structure (SMILES)
5.97 | CCc1ccc(O)cc1
2.71 | CCCC(C)C

Same assay, conditions: Cyclohexanone, 25 C

log K of transfer, gas to solvent [log10 K] | Structure (SMILES)
2.3 | CCCC(C)C

Same assay, conditions: Decan-1-ol, 25 C

log K of transfer, gas to solvent [log10 K] | Structure (SMILES)
6.84 | c1ccc2c(c1)Cc1ccccc1-2

Same assay, conditions: Dichloromethane, 25 C

log K of transfer, gas to solvent [log10 K] | Structure (SMILES)
6.16 | CCc1ccc(O)cc1
2.59 | CCCC(C)C

Same assay, conditions: Ethanol, 25 C

log K of transfer, gas to solvent [log10 K] | Structure (SMILES)
6.54 | c1ccc2c(c1)Cc1ccccc1-2
2.16 | CCCC(C)C

Same assay, conditions: Heptan-1-ol, 25 C

log K of transfer, gas to solvent [log10 K] | Structure (SMILES)
6.84 | c1ccc2c(c1)Cc1ccccc1-2

Same assay, conditions: Hexadecane, 25 C

log K of transfer, gas to solvent [log10 K] | Structure (SMILES)
4.73 | CCc1ccc(O)cc1
6.92 | c1ccc2c(c1)Cc1ccccc1-2
2.5 | CCCC(C)C

Same assay, conditions: Hexan-1-ol, 25 C

log K of transfer, gas to solvent [log10 K] | Structure (SMILES)
6.79 | c1ccc2c(c1)Cc1ccccc1-2

Same assay, conditions: Hexane, 25 C

log K of transfer, gas to solvent [log10 K] | Structure (SMILES)
4.79 | CCc1ccc(O)cc1
6.81 | c1ccc2c(c1)Cc1ccccc1-2
2.82 | CCCC(C)C

Same assay, conditions: Methanol, 25 C

log K of transfer, gas to solvent [log10 K] | Structure (SMILES)
6.48 | c1ccc2c(c1)Cc1ccccc1-2
1.95 | CCCC(C)C

Same assay, conditions: Octan-1-ol, 25 C

log K of transfer, gas to solvent [log10 K] | Structure (SMILES)
6.83 | c1ccc2c(c1)Cc1ccccc1-2

Same assay, conditions: Pentan-1-ol, 25 C

log K of transfer, gas to solvent [log10 K] | Structure (SMILES)
6.77 | c1ccc2c(c1)Cc1ccccc1-2
2.42 | CCCC(C)C

Same assay, conditions: Perfluoroalkane, 25 C

log K of transfer, gas to solvent [log10 K] | Structure (SMILES)
3.17 | CCc1ccc(O)cc1
1.81 | CCCC(C)C

Same assay, conditions: Propan-1-ol, 25 C

log K of transfer, gas to solvent [log10 K] | Structure (SMILES)
6.66 | c1ccc2c(c1)Cc1ccccc1-2
2.15 | CCCC(C)C

Same assay, conditions: Propan-2-ol, 25 C

log K of transfer, gas to solvent [log10 K] | Structure (SMILES)
6.54 | c1ccc2c(c1)Cc1ccccc1-2
2.16 | CCCC(C)C

Same assay, conditions: Propanone, 25 C

log K of transfer, gas to solvent [log10 K] | Structure (SMILES)
2.24 | CCCC(C)C

Same assay, conditions: Propionitrile, 25 C

log K of transfer, gas to solvent [log10 K] | Structure (SMILES)
2.08 | CCCC(C)C

Same assay, conditions: Tetrahydrofuran, 25 C

log K of transfer, gas to solvent [log10 K] | Structure (SMILES)
2.7 | CCCC(C)C

Same assay, conditions: Toluene, 25 C

log K of transfer, gas to solvent [log10 K] | Structure (SMILES)
2.65 | CCCC(C)C

Same assay, conditions: Water, 25 C

log K of transfer, gas to solvent [log10 K] | Structure (SMILES)
4.5 | CCc1ccc(O)cc1
2.45 | c1ccc2c(c1)Cc1ccccc1-2
-1.84 | CCCC(C)C

Assay: log P octanol/water from commercial databases, averaged (the ESI)
Settings: Octanol (wet), 25 C

log K of transfer, water to solvent [log10 K] | Structure (SMILES)
2.58 | CCc1ccc(O)cc1
4.18 | c1ccc2c(c1)Cc1ccccc1-2
3.73 | CCCC(C)C

Assay: derived by the authors as gas->solvent minus gas->water (a hypothetical dry solvent; the ESI), not a two-phase measurement
Settings: 1,2-Dichloroethane, 25 C

log K of transfer, water to solvent [log10 K] | Structure (SMILES)
1.67 | CCc1ccc(O)cc1
4.18 | CCCC(C)C

Same assay, conditions: 2-Methylpropan-1-ol, 25 C

log K of transfer, water to solvent [log10 K] | Structure (SMILES)
4.3 | c1ccc2c(c1)Cc1ccccc1-2

Same assay, conditions: 2-Methylpropan-2-ol, 25 C

log K of transfer, water to solvent [log10 K] | Structure (SMILES)
4.03 | c1ccc2c(c1)Cc1ccccc1-2

Same assay, conditions: 3-Methylbutan-1-ol, 25 C

log K of transfer, water to solvent [log10 K] | Structure (SMILES)
4.11 | c1ccc2c(c1)Cc1ccccc1-2

Same assay, conditions: Acetone, 25 C

log K of transfer, water to solvent [log10 K] | Structure (SMILES)
4.08 | CCCC(C)C

Same assay, conditions: Acetonitrile, 25 C

log K of transfer, water to solvent [log10 K] | Structure (SMILES)
4.67 | c1ccc2c(c1)Cc1ccccc1-2
3.66 | CCCC(C)C

Same assay, conditions: Butan-1-ol, 25 C

log K of transfer, water to solvent [log10 K] | Structure (SMILES)
4.26 | c1ccc2c(c1)Cc1ccccc1-2
4.13 | CCCC(C)C

Same assay, conditions: Butan-2-ol, 25 C

log K of transfer, water to solvent [log10 K] | Structure (SMILES)
4.11 | c1ccc2c(c1)Cc1ccccc1-2

Same assay, conditions: Butanone, 25 C

log K of transfer, water to solvent [log10 K] | Structure (SMILES)
4.23 | CCCC(C)C

Same assay, conditions: Butyronitrile, 25 C

log K of transfer, water to solvent [log10 K] | Structure (SMILES)
4.05 | CCCC(C)C

Same assay, conditions: CCl4, 25 C

log K of transfer, water to solvent [log10 K] | Structure (SMILES)
0.86 | CCc1ccc(O)cc1
4.65 | CCCC(C)C

Same assay, conditions: Chlorobenzene, 25 C

log K of transfer, water to solvent [log10 K] | Structure (SMILES)
1.3 | CCc1ccc(O)cc1
4.62 | CCCC(C)C

Same assay, conditions: Chloroform, 25 C

log K of transfer, water to solvent [log10 K] | Structure (SMILES)
1.47 | CCc1ccc(O)cc1
4.55 | CCCC(C)C

Same assay, conditions: Cyclohexanone, 25 C

log K of transfer, water to solvent [log10 K] | Structure (SMILES)
4.14 | CCCC(C)C

Same assay, conditions: Decan-1-ol, 25 C

log K of transfer, water to solvent [log10 K] | Structure (SMILES)
4.39 | c1ccc2c(c1)Cc1ccccc1-2

Same assay, conditions: Dichloromethane, 25 C

log K of transfer, water to solvent [log10 K] | Structure (SMILES)
1.66 | CCc1ccc(O)cc1
4.43 | CCCC(C)C

Same assay, conditions: Ethanol, 25 C

log K of transfer, water to solvent [log10 K] | Structure (SMILES)
4.09 | c1ccc2c(c1)Cc1ccccc1-2
4 | CCCC(C)C

Same assay, conditions: Heptan-1-ol, 25 C

log K of transfer, water to solvent [log10 K] | Structure (SMILES)
4.39 | c1ccc2c(c1)Cc1ccccc1-2

Same assay, conditions: Hexadecane, 25 C

log K of transfer, water to solvent [log10 K] | Structure (SMILES)
0.237 | CCc1ccc(O)cc1
4.47 | c1ccc2c(c1)Cc1ccccc1-2
4.34 | CCCC(C)C

Same assay, conditions: Hexan-1-ol, 25 C

log K of transfer, water to solvent [log10 K] | Structure (SMILES)
4.34 | c1ccc2c(c1)Cc1ccccc1-2

Same assay, conditions: Hexane, 25 C

log K of transfer, water to solvent [log10 K] | Structure (SMILES)
0.29 | CCc1ccc(O)cc1
4.36 | c1ccc2c(c1)Cc1ccccc1-2
4.66 | CCCC(C)C

Same assay, conditions: Methanol, 25 C

log K of transfer, water to solvent [log10 K] | Structure (SMILES)
4.03 | c1ccc2c(c1)Cc1ccccc1-2
3.79 | CCCC(C)C

Same assay, conditions: Octan-1-ol(dry), 25 C

log K of transfer, water to solvent [log10 K] | Structure (SMILES)
4.38 | c1ccc2c(c1)Cc1ccccc1-2

Same assay, conditions: Pentan-1-ol, 25 C

log K of transfer, water to solvent [log10 K] | Structure (SMILES)
4.32 | c1ccc2c(c1)Cc1ccccc1-2
4.26 | CCCC(C)C

Same assay, conditions: Perfluoroalkane, 25 C

log K of transfer, water to solvent [log10 K] | Structure (SMILES)
-1.33 | CCc1ccc(O)cc1
3.65 | CCCC(C)C

Same assay, conditions: Propan-1-ol, 25 C

log K of transfer, water to solvent [log10 K] | Structure (SMILES)
4.21 | c1ccc2c(c1)Cc1ccccc1-2
3.99 | CCCC(C)C

Same assay, conditions: Propan-2-ol, 25 C

log K of transfer, water to solvent [log10 K] | Structure (SMILES)
4.09 | c1ccc2c(c1)Cc1ccccc1-2
4 | CCCC(C)C

Same assay, conditions: Propionitrile, 25 C

log K of transfer, water to solvent [log10 K] | Structure (SMILES)
3.92 | CCCC(C)C

Same assay, conditions: Tetrahydrofuran, 25 C

log K of transfer, water to solvent [log10 K] | Structure (SMILES)
4.54 | CCCC(C)C

Same assay, conditions: Toluene, 25 C

log K of transfer, water to solvent [log10 K] | Structure (SMILES)
4.49 | CCCC(C)C
